These results are taken from ChEMBL document CHEMBL3112414, “Synthesis of 3-tetrazolylmethyl-4H-chromen-4-ones via Ugi-azide and biological evaluation against Entamoeba histolytica, Giardia lamblia and Trichomona vaginalis” (Bioorg Med Chem, 2014).

What all share (assay type): functional, organism-based
For one test, the system named is Giardia intestinalis. The test can be described thus: Antiprotozoal activity against trophozoite stage of Giardia lamblia IMSS:8909:1 assessed as growth inhibition after 48 hrs. The conditions noted are these: Giardia duodenalis, IMSS:8909:1, 48 h.
For a further test, the system named is Entamoeba histolytica. The test can be described thus: Antiprotozoal activity against trophozoite stage of Entamoeba histolytica HM-1:IMSS assessed as growth inhibition after 48 hrs.
Another test deals with Trichomonas vaginalis. The test can be described thus: Antiprotozoal activity against trophozoite stage of Trichomonas vaginalis GT3 assessed as growth inhibition.

The structures appear in SMILES notation.

In general, IC50 refers to the midpoint of a concentration-inhibition curve. Turning to `O=c1c(C(Nc2ccccc2Br)c2nnnn2C2CCCCC2)coc2ccccc12` (stereo not given), the 50% inhibitory concentration (IC50) with Giardia intestinalis turned out to be 253 µM; with Entamoeba histolytica, 114 µM; in the test with Trichomonas vaginalis it was 195 µM.

For `O=c1c(C(Nc2ccccc2[N+](=O)[O-])c2nnnn2C2CCCCC2)coc2ccccc12` (stereo not given), the figures for the 50% inhibitory concentration (IC50) in the test with Giardia intestinalis, with Entamoeba histolytica and in the test on Trichomonas vaginalis were 194 µM, 124 µM and 188 µM, respectively.

Consider `CC(C)(C)n1nnnc1C(Nc1ccccc1I)c1coc2ccccc2c1=O` (stereo not given), for which the IC50 in the test with Giardia intestinalis worked out at 207 µM; in the test with Entamoeba histolytica it was 134 µM; in the test with Trichomonas vaginalis, 280 µM.

With `O=c1c(C(Nc2ccccc2I)c2nnnn2C2CCCCC2)coc2ccccc12` (stereo not given), the IC50 in the test with Giardia intestinalis is 198 µM; in the test on Entamoeba histolytica, 122 µM; with Trichomonas vaginalis, 282 µM.

For `CC(C)(C)n1nnnc1C(Nc1ccccc1)c1coc2ccccc2c1=O` (stereo not given), the figures for the IC50 in the test with Giardia intestinalis, with Entamoeba histolytica and with Trichomonas vaginalis were 316 µM, 188 µM and 432 µM, respectively.

As to `O=c1c(C(Nc2ccccc2)c2nnnn2C2CCCCC2)coc2ccccc12` (stereo not given), the half-inhibitory concentration (IC50) was found to be 286 µM in the test on Giardia intestinalis, 183 µM in the test on Entamoeba histolytica and 374 µM in the test on Trichomonas vaginalis.

For the compound `CC(C)(C)n1nnnc1C(Nc1ccc(Cl)cc1)c1coc2ccccc2c1=O` (stereo not given), the IC50 in the test on Giardia intestinalis is 269 µM; in the test with Entamoeba histolytica it was 161 µM; in the test with Trichomonas vaginalis, 371 µM.

With `O=c1c(C(Nc2ccc(Cl)cc2)c2nnnn2C2CCCCC2)coc2ccccc12` (stereo not given), the 50% inhibitory concentration (IC50) stood at 218 µM in the test on Giardia intestinalis, 176 µM in the test with Entamoeba histolytica and 284 µM in the test on Trichomonas vaginalis.

On to `CC(C)(C)n1nnnc1C(Nc1ccc(I)cc1)c1coc2ccccc2c1=O` (stereo not given), for which the figures for the half-inhibitory concentration (IC50) in the test on Giardia intestinalis, with Entamoeba histolytica and with Trichomonas vaginalis were 197 µM, 142 µM and 246 µM, respectively.

Regarding `O=c1c(C(Nc2ccc(I)cc2)c2nnnn2C2CCCCC2)coc2ccccc12` (stereo not given), the half-inhibitory concentration (IC50) amounted to 226 µM with Giardia intestinalis, 117 µM with Entamoeba histolytica and 222 µM with Trichomonas vaginalis.

In the case of `O=c1c(C(Nc2ccc([N+](=O)[O-])cc2)c2nnnn2C2CCCCC2)coc2ccccc12` (stereo not given), the results for the half-inhibitory concentration (IC50) with Giardia intestinalis, in the test on Entamoeba histolytica and in the test with Trichomonas vaginalis were 247 µM, 116 µM and 205 µM, respectively.

On to `COc1ccc(NC(c2coc3ccccc3c2=O)c2nnnn2-c2c(C)cccc2C)cc1OC` (stereo not given), for which the half-inhibitory concentration (IC50) was 240 µM with Giardia intestinalis, 111 µM in the test on Entamoeba histolytica and 192 µM with Trichomonas vaginalis.

With `COc1cc(NC(c2coc3ccccc3c2=O)c2nnnn2C2CCCCC2)cc(OC)c1OC` (stereo not given), the IC50 in the test with Giardia intestinalis came to 171 µM; with Entamoeba histolytica, 87.9 µM; in the test with Trichomonas vaginalis, 176 µM.

For `CC(C)(C)n1nnnc1C(Nc1ccccc1Br)c1coc2ccccc2c1=O` (stereo not given), the half-maximal inhibitory concentration (IC50) with Giardia intestinalis turned out to be 242 µM; with Entamoeba histolytica, 125 µM; in the test with Trichomonas vaginalis, 234 µM.

`COc1ccc(-c2coc3cc(O)ccc3c2=O)cc1` [FORMONONETIN]: the half-inhibitory concentration (IC50) in the test on Giardia intestinalis turned out to be 0.03 µg/mL.

With `Cc1ncc([N+](=O)[O-])n1CCO` [METRONIDAZOLE], the results for the 50% inhibitory concentration (IC50) with Giardia intestinalis and in the test on Entamoeba histolytica were 1.22 µg/mL and 0.23 µg/mL, respectively.
